Measurements from ChEMBL document CHEMBL4665675 (J Med Chem, 2020).
Where a SMILES comes first, the peptide text is derived from it. [ ]: non-standard residue; d: D form. The star is where a group is joined. Cholesteryloxycarbonyl = CC(C)CCC[C@@H](C)[C@H]1CC[C@H]2[C@@H]3CC=C4C[C@@H](OC(=O)*)CC[C@]4(C)[C@H]3CC[C@]12C; PEG3 = NCCOCCOCCOCCC(=O)O; Aib = CC(C)(N)C(=O)O; βAla = NCCC(=O)O

Experiments:
HEK293 [1] = experiment: Cytotoxicity against HEK293 cells; type: cell-based; settings: Homo sapiens
BJAB [2] = experiment: Cytotoxicity against human BJAB cells; type: functional, cell-based
HaCaT = experiment: Cytotoxicity against human HaCaT cells; type: functional, cell-based
K562 = experiment: Cytotoxicity against human K562 cells; type: functional, cell-based
Jurkat = experiment: Cytotoxicity against human Jurkat cells; type: functional, cell-based
HBL-100 = experiment: Cytotoxicity against human HBL100 cells; type: functional, cell-based
A549 [3] = experiment: Cytotoxicity against human A549 cells incubated for 48 hrs by MTT assay; type: functional, cell-based; settings: A549, 48 h
MIA PaCa-2 = experiment: Cytotoxicity against human Mia PaCa-2 cells incubated for 48 hrs by MTT assay; type: functional, cell-based; settings: MIA PaCa-2, 48 h
[4] = Cytotoxicity against human HGF-1 cells incubated for 48 hrs by MTT assay; type: cell-based; settings: HGF1, 48 h
HEK293 [5] = experiment: Cytotoxicity against HEK293 cells incubated for 48 hrs by MTT assay; type: cell-based; settings: Homo sapiens, HEK293, 48 h
HT-29 = experiment: Cytotoxicity against human HT-29 cells incubated for 48 hrs by MTT assay; type: functional, cell-based; settings: HT-29, 48 h
BXPC-3 = experiment: Cytotoxicity against human BxPC-3 cells incubated for 48 hrs by MTT assay; type: functional, cell-based; settings: BXPC-3, 48 h
PC-3 = experiment: Cytotoxicity against human PC-3 cells incubated for 48 hrs by MTT assay; type: functional, cell-based; settings: PC-3, 48 h
[6] = Cytotoxicity against human BHP-1 cells incubated for 48 hrs by MTT assay; type: cell-based; settings: BHP1, 48 h
SK-BR-3 [7] = experiment: Cytotoxicity against human SK-BR-3 cells assessed as reduction in cell viability incubated for 72 hrs by flow cytometry; type: functional, cell-based; settings: SK-BR-3, 72 h
SK-BR-3 [8] = experiment: Cytotoxicity against human SK-BR-3 cells assessed as reduction in cell viability incubated for 72 hrs in presence of trastuzumab-iCME by flow cytometry; type: functional, cell-based; settings: SK-BR-3, 72 h
A549 [9] = experiment: Cytotoxicity against human A549 cells by MTT assay; type: functional, cell-based
[10] = Inhibition of porcine tubulin polymerization by UV/visible spectrophotometry; design: species or system Sus scrofa
KB 3-1 = experiment: Antiproliferative activity against human KB-31 cells incubated for 96 hrs by spectrophotometric method; type: functional, cell-based; settings: KB 3-1, 96 h
[11] = Antiproliferative activity against human KB-8511 cells incubated for 96 hrs by spectrophotometric method; type: functional, cell-based; settings: KB-ChR-8-5-11, 96 h
HeLa = experiment: Cytotoxicity against human HeLa cells after 24 to 72 hrs by Cell Titer Blue assay; type: cell-based
P388 = experiment: Antiproliferative activity against mouse P388 cells incubated for 72 hrs by Coulter counter method; type: functional, cell-based; settings: P388, 72 h
NALM-6 [12] = experiment: Antiproliferative activity against human Nalm-6 cells incubated for 24 hrs by cell counting based method; type: functional; settings: NALM-6, 24 h
BJAB [13] = experiment: Antiproliferative activity against human BJAB cells incubated for 24 hrs by cell counting based method; type: functional
BJAB [14] = experiment: Induction of apoptosis in human BJAB cells at 5 nM incubated for 72 hrs by flow cytometric method relative to control; type: functional
MCF7 = experiment: Induction of apoptosis in human MCF7 cells at 3 nM incubated for 72 hrs by flow cytometric method; type: functional
NALM-6 [15] = experiment: Induction of apoptosis in human Nalm-6 cells at 5 nM incubated for 72 hrs by flow cytometric method relative to control; type: functional
[16] = Inhibition of DNA topoisomerase2 (unknown origin); design: species or system Homo sapiens
Rattus norvegicus = organism: Rattus norvegicus; experiment: Inhibition of [3H]colchicine binding to rat brain tubulin at 25 uM relative to control
L1210 = experiment: Cytotoxicity against mouse L1210 cells incubated for 24 hrs; type: functional, cell-based; settings: L1210, 24 h
Bos taurus = organism: Bos taurus; experiment: Inhibition of [3H]colchicine binding to bovine brain tubulin at 5 uM incubated for 10 mins by DEAE-cellulose filter method relative to control

Which IC50 (HEK293 [1]) does the source give for COc1cc2c(c(OC)c1OC)-c1ccc3[nH]c(C)c(C)c3c1[C@@H](NC(C)=O)CC2 here?
Its IC50 is 2000 nM.

Which IC50 (BJAB [2]) does the source give for CCCCCCCCCCCCCCCCCC(=O)OCc1cn([C@H]2CCc3cc(OC)c(OC)c(OC)c3-c3ccc(OC)c(=O)cc32)nn1 here?
The IC50 was 3.5 nM.

And the IC50 (HaCaT)?
Its IC50 is 3.5 nM.

And the IC50 (K562)?
Its IC50 is 3.5 nM.

What about the IC50 (Jurkat) of the same compound?
Its IC50 is 3.5 nM.

And the IC50 (HBL-100)?
Its IC50 is 3.5 nM.

Which results are given for CCCCCCCCCCCCCCCC(=O)OCc1cn([C@H]2CCc3cc(OC)c(OC)c(OC)c3-c3ccc(OC)c(=O)cc32)nn1?
IC50 (BJAB [2]): 3.5 nM; IC50 (HaCaT): 3.5 nM; IC50 (K562): 3.5 nM; IC50 (Jurkat): 3.5 nM; IC50 (HBL-100): 3.5 nM

For COc1cc2c(c(OC)c1OC)-c1ccc(Nc3ccc(Cl)c(C(F)(F)F)c3)c(=O)cc1[C@@H](NC(C)=O)CC2, which IC50 (A549 [3]) is on record?
Its IC50 is 35 nM.

And the IC50 (MIA PaCa-2)?
Its IC50 is 35 nM.

What about the IC50 [4] of the same compound?
Its IC50 is 35 nM.

What about the IC50 (HEK293 [5]) of the same compound?
The IC50 was 35 nM.

And the IC50 (HT-29)?
Its IC50 is 35 nM.

What about the IC50 (BXPC-3) of the same compound?
Its IC50 is 35 nM.

What about the IC50 (PC-3) of the same compound?
The IC50 was 35 nM.

And the IC50 [6]?
Its IC50 is 35 nM.

Which results are given for CC(C)CCC[C@@H](C)[C@H]1CC[C@H]2[C@@H]3CC=C4C[C@@H](OC(=O)NCCC(=O)NCCC(=O)N[C@@H](CCC(=O)O)C(=O)N[C@@H](CCC(=O)O)C(=O)NCCOCCOCCOCCC(=O)NCCOCCOCCOCCC(=O)NC(C)(C)C(=O)NC(C)(C)C(=O)NC(C)(C)C(=O)NC(C)(C)C(=O)N[C@@H](Cc5c[nH]c6ccccc56)C(=O)N[C@@H](Cc5ccc(O)cc5)C(=O)N[C@@H](C)C(=O)N[C@@H](Cc5c[nH]c6ccccc56)C(=O)N[C@@H](Cc5ccc(O)cc5)C(=O)N[C@@H](C)C(=O)N[C@@H](Cc5c[nH]c6ccccc56)C(=O)N[C@@H](Cc5ccc(O)cc5)C(=O)N5CCC[C@H]5C(=O)N5CCC[C@H]5C(=O)N[C@H](C(=O)N[C@H](C(N)=O)C(C)C)C(C)C)CC[C@]4(C)[C@H]3CC[C@]12C ({Cholesteryloxycarbonyl-βAla-βAla}-EE[PEG3][PEG3][Aib][Aib][Aib][Aib]WYAWYAWYPPVV-NH2)?
IC50 (SK-BR-3 [7]): > 10000 nM; IC50 (SK-BR-3 [8]): 0.11 nM

Which IC50 (A549 [9]) does the source give for COc1cc2c(c(OC)c1OC)-c1ccc(OC)c(=O)cc1[C@@H](NC(=O)CCCCCCC(=O)C1C3CC4CC(C3)CC1C4)CC2 (stereo not given in full) here?
The IC50 was at most 5 nM.

Which IC50 [10] does the source give for COc1cc2c(c(OC)c1OC)-c1ccc(OC)c(=O)cc1[C@@H](NC(C)=O)CC2 [COLCHICINE] here?
Its IC50 is 3900 nM.

And the IC50 (KB 3-1)?
The IC50 was 9 nM.

And the IC50 (A549 [3])?
The IC50 was 42 nM.

And the IC50 (MIA PaCa-2)?
The IC50 was 42 nM.

And the IC50 [4]?
The IC50 was 42 nM.

What about the IC50 [11] of the same compound?
The IC50 was 540 nM.

What about the IC50 (HEK293 [5]) of the same compound?
Its IC50 is 42 nM.

And the IC50 (HT-29)?
Its IC50 is 42 nM.

What about the IC50 (HeLa) of the same compound?
The IC50 was 58 nM.

What about the IC50 (P388) of the same compound?
Its IC50 is 29 nM.

What about the IC50 (BXPC-3) of the same compound?
The IC50 was 42 nM.

And the IC50 (PC-3)?
Its IC50 is 42 nM.

And the IC50 [6]?
Its IC50 is 42 nM.

Which IC50 (NALM-6 [12]) does the source give for COc1cc2c(c(OC)c1OC)C1=C(C=C(O)C(=O)CC1)CO[C@@H]2C here?
The IC50 was 1000 nM.

And the IC50 (BJAB [13])?
The IC50 was 1000 nM.

Which Activity (BJAB [14]) does the source give for C=C1Cc2cc(OC)c(OC)c(OC)c2-c2ccc(OC)c(=O)cc21 here?
The Activity was 48%.

And the Activity (MCF7)?
Its Activity is 62%.

And the Activity (NALM-6 [15])?
Its Activity is 71%.

With COc1cc2c(c(OC)c1OC)-c1ccc(OC)c(=O)cc1[C@@H](NC(=O)CCCCCC(=O)OC1C3CC4CC(C3)CC1C4)CC2 (stereo not given in full) as the compound, how does the IC50 (A549 [9]) read?
The IC50 was at most 5 nM.

With CSc1ccc2c(cc1=O)[C@@H](NC(C)=O)CCc1cc(O)c(O)c(O)c1-2 as the compound, how does the IC50 [16] read?
The IC50 was 9000 nM.

For COc1cc2c(c(OC)c1OC)-c1cccc(=O)cc1[C@@H](NC(C)=O)CC2, which inhibition (Rattus norvegicus) is on record?
Its inhibition is 87%.

Which IC50 (L1210) does the source give for COc1c2c(cc3c1-c1ccc(OC)c(=O)cc1[C@@H](NC(C)=O)CC3)OCO2 here?
Its IC50 is 20 nM.

And the inhibition (Bos taurus)?
Its inhibition is 54%.
